pIC50: −log10 of the molar value. Several values for one entry are separate records, joined by “and”; a condition that tells them apart may be missing. Equal values may be shown once.
Tested on: 188146-221-R-J1-PDC complex spheroid viability
Assay: Anticancer human tumor 188146-221-R-J1-PDC patient-derived colon adenocarcinoma cell line growth inhibition [POLQ]
Details: for viability, T/C: stronger effect = lower value
Experimental: Multicellular complex tumor spheroid response to Polymerase (POL) inhibitors (novobiocin, ART-558, RP6685) in combination with a variety of drugs and investigational agents in selected tumor cell lines
The POL inhibitors (novobiocin, ART-558, and RP6685) were evaluated both individually and in combination with standard of care and investigational anticancer small molecules within a complex spheroid model of solid tumors. . Complex spheroids include a stromal component modeled by human endothelial cells (HUVEC) and fibroblasts modeled by human mesenchymal stem cells (MSCs). The concentration ranges selected for each drug and investigational agent were based upon clinically achievable concentrations if the clinical Cmax of the agent was known.
Compounds. The drugs and investigational agents: novobiocin (NSC847541), ART-558 (NSC835418), RP-6685 (NSC848927), peposertib (NSC802822), ceralasertib (NSC780249), elimusertib (NSC800525), camonsertib (NSC841442), AZD-1390 (NSC803789), olaparib (NSC753686), talazoparib (NSC767125), rucaparib (NSC756644), sotorasib (NSC818433), MRTX-1133 (NSC836407), SN-38 (NSC673596), topotecan (NSC609699), epotoside (NSC141540), doxorubicin (NSC123127), gemcitabine (NSC613327), 5-fluorouracil (NSC19893), paclitaxel (NSC125973), vemurafenib (NSC761431), MSA-2 (NSC828583), SN-011 (NSC837082), adavosertib (NSC754352), prexasertib (NSC758257), carboplatin (NSC241240) and oxaliplatin (NSC266046), were obtained from the National Cancer Institute (NCI) Developmental Therapeutics Program Chemical Repository (21). The FDA-approved anticancer drug set is available from the Developmental Therapeutics Program at https://dtp.cancer.gov/organization/dscb/obtaining/. […] The stock solutions were prepared in dimethyl sulfoxide (DMSO, Sigma-Aldrich, St. Louis, MO, cat. D2650), except for the platinum compounds which were prepared in saline (Quality Biological, Gaithersburg, MD, cat. 114-055-101), at 800-fold the tested concentration and stored at -70 degrees C prior to their use. All drugs and investigational agents were tested over a range starting from a high concentration at or near the clinical Cmax and decreasing in half-log increments. If the clinical Cmax for an agent had not been determined, the highest concentration tested was 10 microM, except for SN-38, which was tested at a high concentration of 1 microM.
Cell Culture. All cells were maintained in an incubator at 37 degrees C and 5% CO2 with 95% humidity. The PDC lines were cultured according to standard operating procedures established by the NCI PDMR (https://pdmr.cancer.gov). Table 3 of the manuscript, lists the cell lines along with the number of the three cell types plated to form the mct-spheroids and media for tumor cell growth. After thawing, all PDC lines, except 997537-175-T-J1-PDC and 415267-285-R-J2-PDC, were cultured in Matrigel-coated flasks prepared with a working solution of 1X Ham's F-12 nutrient mix, without supplementation (Thermo Fisher Scientific, cat. 11765054), 100 U/mL penicillin-streptomycin (Thermo Fisher Scientific, cat. 15140122), and 2.5% Matrigel (Corning Inc., Corning, NY, cat. 354248) for the first three passages. The two PDC lines 997537-175-T-J1-PDC and 415267-285-R-J2-PDC were cultured on uncoated flasks. The 857933-349-R-J2-PDC line was cultured in 6C/Colon 1B media containing advanced DMEM/F-12 (Thermo Fisher Scientific, cat. 12634028), 10 mM HEPES (Thermo Fisher Scientific, cat. 15630080), 1X GlutaMAX supplement (Thermo Fisher Scientific, cat. 35050061), 0.1 mg/mL primocin (InvivoGen, San Diego, CA, cat. ant-pm-2), 10% defined fetal bovine serum, heat inactivated (HyClone Laboratories Inc., Logan, UT, cat. SH30070.03HI), 50% L-WRN conditioned media (ATCC, cat. CRL-3276), 1.25 mM N-Acetyl-L-cysteine (Sigma-Aldrich, cat. A9165), 10 mM nicotinamide (Sigma-Aldrich, cat. N0636), 1X B-27 supplement (Thermo Fisher Scientific, cat. 17504044), 1X N-2 supplement (Thermo Fisher Scientific, cat. […]
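Further: spheroids exposed to compounds for seven days.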
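Wherever viability, T/C is given: 100% = DMSO vehicle control viability.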

Cn1ncnc1[C@H]1c2n[nH]c(=O)c3cc(F)cc(c23)N[C@@H]1c1ccc(F)cc1
viability, T/C (compound 0.000316 µM): 102% and 97.5% and 109%
viability, T/C (compound 0.001 µM): 112% and 93.3% and 103%
viability, T/C (compound 0.00316 µM): 89.9% and 107% and 95.2%
viability, T/C (compound 0.01 µM): 99.5% and 108% and 103%
viability, T/C (compound 0.0316 µM): 104% and 87% and 114%
viability, T/C (compound 0.1 µM): 95.4% and 95.5% and 82.1%
pIC50 (curve of compound): < 7.00

COc1cccc(OCCCN)c1-c1cc(Nc2cnc(C#N)cn2)n[nH]1
viability, T/C (compound 0.00316 µM): 97.7% and 99% and 88.2%
viability, T/C (compound 0.01 µM): 88.1% and 99.5% and 101%
viability, T/C (compound 0.0316 µM): 42.7% and 75.8% and 72.2%
viability, T/C (compound 0.1 µM): 20.7% and 37.1% and 32.8%
viability, T/C (compound 0.316 µM): 12.7% and 16.1% and 16.8%
viability, T/C (compound 1 µM): 9.17% and 13% (2×)
pIC50 (curve of compound): 7.57 and 7.17 and 7.21

CCc1c2c(nc3ccc(O)cc13)-c1cc3c(c(=O)n1C2)COC(=O)[C@]3(O)CC + Nc1ccc(C#CCN(C(=O)Cc2ncc(C(F)(F)F)cc2C(F)(F)F)c2ccc(F)cc2)nn1
pIC50 (curve of first compound, second compound 0.0316 µM): 7.70
pIC50 (curve of first compound, second compound 0.1 µM): 7.60
pIC50 (curve of first compound, second compound 0.316 µM): 7.68
pIC50 (curve of first compound, second compound 1 µM): 7.63
pIC50 (curve of first compound, second compound 3.16 µM): 7.58
pIC50 (curve of first compound, second compound 10 µM): 7.63
viability, T/C (second compound 0.0316 µM, first compound 0.00316 µM): 94.7%
viability, T/C (second compound 0.0316 µM, first compound 0.01 µM): 69.8%
viability, T/C (second compound 0.0316 µM, first compound 0.0316 µM): 35%
viability, T/C (second compound 0.0316 µM, first compound 0.1 µM): 20.9%
viability, T/C (second compound 0.0316 µM, first compound 0.316 µM): 12.5%
viability, T/C (second compound 0.0316 µM, first compound 1 µM): 7.87%
viability, T/C (second compound 0.1 µM, first compound 0.00316 µM): 101%
viability, T/C (second compound 0.1 µM, first compound 0.01 µM): 81.1%
viability, T/C (second compound 0.1 µM, first compound 0.0316 µM): 42.1%
viability, T/C (second compound 0.1 µM, first compound 0.1 µM): 18.5%
viability, T/C (second compound 0.1 µM, first compound 0.316 µM): 13.3%
viability, T/C (second compound 0.1 µM, first compound 1 µM): 10.1%
viability, T/C (second compound 0.316 µM, first compound 0.00316 µM): 100%
viability, T/C (second compound 0.316 µM, first compound 0.01 µM): 73.1%
viability, T/C (second compound 0.316 µM, first compound 0.0316 µM): 35.9%
viability, T/C (second compound 0.316 µM, first compound 0.1 µM): 18.3%
viability, T/C (second compound 0.316 µM, first compound 0.316 µM): 12.4%
viability, T/C (second compound 0.316 µM, first compound 1 µM): 8.23%
viability, T/C (second compound 1 µM, first compound 0.00316 µM): 88.9%
viability, T/C (second compound 1 µM, first compound 0.01 µM): 77.8%
viability, T/C (second compound 1 µM, first compound 0.0316 µM): 37.7%
viability, T/C (second compound 1 µM, first compound 0.1 µM): 22.3%
viability, T/C (second compound 1 µM, first compound 0.316 µM): 13.7%
viability, T/C (second compound 1 µM, first compound 1 µM): 8.08%
viability, T/C (second compound 3.16 µM, first compound 0.00316 µM): 90.5%
viability, T/C (second compound 3.16 µM, first compound 0.01 µM): 89.7%
viability, T/C (second compound 3.16 µM, first compound 0.0316 µM): 42.2%
viability, T/C (second compound 3.16 µM, first compound 0.1 µM): 19.3%
viability, T/C (second compound 3.16 µM, first compound 0.316 µM): 12.6%
viability, T/C (second compound 3.16 µM, first compound 1 µM): 8.98%
viability, T/C (second compound 10 µM, first compound 0.00316 µM): 98.6%
viability, T/C (second compound 10 µM, first compound 0.01 µM): 75.3%
viability, T/C (second compound 10 µM, first compound 0.0316 µM): 38.9%
viability, T/C (second compound 10 µM, first compound 0.1 µM): 22.6%
viability, T/C (second compound 10 µM, first compound 0.316 µM): 15.7%
viability, T/C (second compound 10 µM, first compound 1 µM): 8.14%

CCCS(=O)(=O)Nc1ccc(F)c(C(=O)c2c[nH]c3ncc(-c4ccc(Cl)cc4)cc23)c1F
viability, T/C (compound 0.0316 µM): 104% and 98.2% and 96.2%
viability, T/C (compound 0.1 µM): 108% and 92.2% and 102%
viability, T/C (compound 0.316 µM): 111% and 95.7% and 82.7%
viability, T/C (compound 1 µM): 90.1% and 79.7% and 80.1%
viability, T/C (compound 3.16 µM): 83.9% and 85.2% and 81.8%
viability, T/C (compound 10 µM): 40.6% and 36.2% and 25.4%
pIC50 (curve of compound): 5.11 and 5.15 and 5.23
